Test results reported in patent US9580413B2, “Substituted pyrrolidines as ROS tyrosine kinase inhibitors” (NIPPON SHINYAKU CO., LTD., priority 2012, dated 2017).
Structures can show the parent of a compound that is named as a salt.

Assays:
JAK2 tyrosine kinase = biological target: T1, JAK2 tyrosine kinase (Homo sapiens, UniProt O60674); assay: JAK2 tyrosine kinase inhibitory activity test (ELISA); type: biochemical, humans; conditions: 25 μM ATP substrate solution, 30° C., one hour
T1 construct: purchased Carna Biosciences, Inc
Experimental: (§1) 1. Preparation of Test Substance:
(§2) A test substance was dissolved in dimethyl sulfoxide (DMSO) to 10 mM and further diluted with DMSO to concentrations of 100-fold of the concentrations to be measured (100, 10, 1, 0.1, and 0.01 μM). Furthermore, the resultant was diluted with an assay buffer to 20-fold, thereby preparing a solution as a test substance solution. A solution prepared by diluting DMSO with an assay buffer to 20-fold was used as a negative control. A buffer containing 15 mM Tris-Cl (pH 7.5), 0.01 (v/v) % Tween-20, and 1 mM dithiothreitol was used as the assay buffer.
(§3) 2. Measurement of ROS Tyrosine Kinase Activity and JAK2 Tyrosine Kinase Activity:
(§4) The activity was measured by adopting the ELISA method. […] Finally, an ROS kinase or a JAK2 kinase (derived from humans, Carna Biosciences, Inc.) (diluted with the assay buffer to 0.25 nM) was added to the plate at 20 μL per well, and the resulting mixture was stirred. A reaction was performed at 30° C. for one hour. After the plate was washed 4 times with a washing buffer (50 mM Tris-Cl (pH 7.5), 150 mM NaCl, and 0.02 (v/v) % Tween-20), a blocking buffer (0.1% bovine serum albumin, 50 mM Tris-Cl (pH 7.5), 150 mM NaCl, and 0.02 (v/v) % Tween-20) was added to the plate at 150 μL per well, and incubated at 30° C. for 30 minutes. The blocking buffer was then removed, and a horse radish peroxidase-labeled anti-phosphorylated tyrosine antibody (BD Biosciences, Inc.) (diluted with the blocking buffer to 10,000-fold) was added to the plate at 100 μL per well, and the plate was incubated at 30° C. for 30 minutes. After the plate was washed 4 times with the washing buffer, a 3,3′,5,5′-tetramethylbenzidine solution (Sigma-Aldrich Co., Ltd.) was added to the plate at 100 μL per well to develop the color for 10 minutes. The reaction was stopped by adding 0.1 M sulfuric acid at 100 μL per well. An absorbance at 450 nm was measured with a microplate reader (Model 3550, manufactured by BIO-RAD, Benchmark, manufactured by BIO-RAD, or iMARK, manufactured by BIO-RAD).
(§5) 3. Analysis of Measurement Results:
(§6) A non-linear regression analysis was performed for the measured absorbance with an SAS system (SAS Institute Inc.), and a concentration of each of the test substances of inhibiting the ROS tyrosine kinase activity or JAK2 tyrosine kinase activity at 50% (IC50) was calculated. The inhibitory activity (IC50, nM) of each of the test substances against the ROS tyrosine kinase or JAK2 tyrosine kinase is shown in Tables 6 to 8.

ROS tyrosine kinase = biological target: T2, ROS tyrosine kinase (Homo sapiens, UniProt P08922); assay: ROS tyrosine kinase inhibitory activity test (ELISA); type: biochemical, humans; conditions: 25 μM ATP substrate solution, 30° C., one hour
T2 construct: purchased Carna Biosciences, Inc
Experimental: as §1, §2, §3, §4, §5, §6

T2 sequence (P08922 28-2347): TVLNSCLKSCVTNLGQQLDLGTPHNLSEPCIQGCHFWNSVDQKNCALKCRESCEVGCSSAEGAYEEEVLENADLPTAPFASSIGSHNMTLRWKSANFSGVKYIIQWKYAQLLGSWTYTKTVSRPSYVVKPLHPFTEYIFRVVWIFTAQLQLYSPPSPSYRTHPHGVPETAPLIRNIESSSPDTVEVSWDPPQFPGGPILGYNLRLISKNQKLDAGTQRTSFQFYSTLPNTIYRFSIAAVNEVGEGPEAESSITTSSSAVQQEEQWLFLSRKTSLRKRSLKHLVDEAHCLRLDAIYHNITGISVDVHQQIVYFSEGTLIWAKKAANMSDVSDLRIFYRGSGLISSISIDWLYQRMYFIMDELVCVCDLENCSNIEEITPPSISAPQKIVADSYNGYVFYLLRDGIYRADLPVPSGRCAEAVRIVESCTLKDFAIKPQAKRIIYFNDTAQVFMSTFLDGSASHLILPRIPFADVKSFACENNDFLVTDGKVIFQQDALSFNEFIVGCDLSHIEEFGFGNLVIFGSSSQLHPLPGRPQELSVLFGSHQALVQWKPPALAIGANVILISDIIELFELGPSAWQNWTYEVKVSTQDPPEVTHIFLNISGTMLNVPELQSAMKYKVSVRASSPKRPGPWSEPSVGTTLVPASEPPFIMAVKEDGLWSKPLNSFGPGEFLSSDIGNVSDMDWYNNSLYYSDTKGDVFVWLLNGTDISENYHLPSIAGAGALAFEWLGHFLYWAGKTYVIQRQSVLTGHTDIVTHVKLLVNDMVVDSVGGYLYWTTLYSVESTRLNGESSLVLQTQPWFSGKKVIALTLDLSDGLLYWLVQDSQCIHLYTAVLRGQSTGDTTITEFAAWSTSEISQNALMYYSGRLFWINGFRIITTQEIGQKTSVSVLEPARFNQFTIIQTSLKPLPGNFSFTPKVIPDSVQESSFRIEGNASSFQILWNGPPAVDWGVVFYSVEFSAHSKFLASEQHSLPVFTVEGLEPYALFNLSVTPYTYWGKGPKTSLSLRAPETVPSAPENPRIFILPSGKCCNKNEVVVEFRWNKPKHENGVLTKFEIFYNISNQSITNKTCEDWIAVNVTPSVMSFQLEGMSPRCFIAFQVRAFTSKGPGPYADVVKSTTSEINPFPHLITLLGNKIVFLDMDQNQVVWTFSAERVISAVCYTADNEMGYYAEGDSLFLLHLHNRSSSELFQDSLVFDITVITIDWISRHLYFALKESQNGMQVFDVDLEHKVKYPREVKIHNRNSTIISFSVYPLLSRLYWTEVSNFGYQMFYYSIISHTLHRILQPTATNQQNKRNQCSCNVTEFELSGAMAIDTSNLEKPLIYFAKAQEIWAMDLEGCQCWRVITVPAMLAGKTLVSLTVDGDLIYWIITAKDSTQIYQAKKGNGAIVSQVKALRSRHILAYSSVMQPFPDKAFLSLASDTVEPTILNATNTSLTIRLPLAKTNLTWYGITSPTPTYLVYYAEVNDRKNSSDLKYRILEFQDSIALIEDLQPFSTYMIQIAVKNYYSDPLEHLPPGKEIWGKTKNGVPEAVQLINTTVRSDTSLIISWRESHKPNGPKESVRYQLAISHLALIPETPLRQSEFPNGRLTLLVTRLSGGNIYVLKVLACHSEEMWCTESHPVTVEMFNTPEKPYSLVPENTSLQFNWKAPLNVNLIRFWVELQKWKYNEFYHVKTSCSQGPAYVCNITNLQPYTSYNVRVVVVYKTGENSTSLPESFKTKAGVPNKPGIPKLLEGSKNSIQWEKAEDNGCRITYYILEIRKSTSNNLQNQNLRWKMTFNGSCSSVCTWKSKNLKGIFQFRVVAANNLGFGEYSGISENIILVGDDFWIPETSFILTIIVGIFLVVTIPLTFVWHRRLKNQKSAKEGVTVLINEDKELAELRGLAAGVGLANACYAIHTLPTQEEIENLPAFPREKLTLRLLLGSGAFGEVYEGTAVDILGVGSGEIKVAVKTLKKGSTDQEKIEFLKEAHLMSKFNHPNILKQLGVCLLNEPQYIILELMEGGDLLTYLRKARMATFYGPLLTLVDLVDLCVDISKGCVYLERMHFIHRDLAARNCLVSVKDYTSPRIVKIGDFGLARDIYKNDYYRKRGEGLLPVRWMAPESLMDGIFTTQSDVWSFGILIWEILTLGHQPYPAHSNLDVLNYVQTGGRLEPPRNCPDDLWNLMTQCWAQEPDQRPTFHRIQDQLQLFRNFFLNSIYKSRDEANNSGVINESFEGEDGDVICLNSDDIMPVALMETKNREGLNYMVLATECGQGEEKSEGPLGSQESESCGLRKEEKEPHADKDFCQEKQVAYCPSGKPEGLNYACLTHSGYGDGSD
T1 sequence (O60674 whole entry): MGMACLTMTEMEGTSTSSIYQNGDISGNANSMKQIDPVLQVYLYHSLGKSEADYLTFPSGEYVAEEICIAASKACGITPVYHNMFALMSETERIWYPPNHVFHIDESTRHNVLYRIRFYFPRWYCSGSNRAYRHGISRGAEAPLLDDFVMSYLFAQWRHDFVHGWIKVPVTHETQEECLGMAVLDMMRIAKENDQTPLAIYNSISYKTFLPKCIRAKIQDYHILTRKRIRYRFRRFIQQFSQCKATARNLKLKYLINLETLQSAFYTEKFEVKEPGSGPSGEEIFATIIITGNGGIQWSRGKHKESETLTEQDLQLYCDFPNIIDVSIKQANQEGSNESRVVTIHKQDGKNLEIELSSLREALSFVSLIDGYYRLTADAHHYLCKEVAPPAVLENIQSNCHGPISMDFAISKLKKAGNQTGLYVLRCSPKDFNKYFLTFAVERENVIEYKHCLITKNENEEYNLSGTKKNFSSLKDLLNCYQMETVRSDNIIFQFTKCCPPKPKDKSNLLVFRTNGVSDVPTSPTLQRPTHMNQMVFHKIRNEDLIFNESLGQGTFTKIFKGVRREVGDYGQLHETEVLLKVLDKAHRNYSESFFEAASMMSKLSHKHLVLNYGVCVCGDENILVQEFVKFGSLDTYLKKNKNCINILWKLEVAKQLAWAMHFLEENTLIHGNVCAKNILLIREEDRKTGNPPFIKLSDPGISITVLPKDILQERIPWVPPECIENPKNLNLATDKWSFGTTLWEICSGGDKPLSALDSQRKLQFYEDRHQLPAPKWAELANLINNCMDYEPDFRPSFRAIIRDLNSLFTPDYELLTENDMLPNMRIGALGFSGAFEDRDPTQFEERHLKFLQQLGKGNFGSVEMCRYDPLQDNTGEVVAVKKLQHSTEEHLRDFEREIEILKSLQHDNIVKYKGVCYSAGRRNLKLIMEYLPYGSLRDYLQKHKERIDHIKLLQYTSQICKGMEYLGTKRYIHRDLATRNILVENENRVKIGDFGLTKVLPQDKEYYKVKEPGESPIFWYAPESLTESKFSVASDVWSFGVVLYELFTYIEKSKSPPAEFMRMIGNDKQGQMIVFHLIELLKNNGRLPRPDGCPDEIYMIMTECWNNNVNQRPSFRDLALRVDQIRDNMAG

SMILES	IC50 (JAK2 tyrosine kinase) [nM]	IC50 (ROS tyrosine kinase) [nM]
Cc1ccc(C2CCCN2c2ncc(C)c(Nc3ncc(C#N)s3)n2)cc1 (stereo not drawn) [Example 2, 2-({5-Methyl-2-[2-(4-methylphenyl)pyrrolidin-1-yl]pyrimidin-4-yl}amino)-1,3-thiazole-5-carbonitrile]	270	3.2
COc1c(Nc2ncc(C#N)s2)nc(N2CCCC2c2ccc(C)cc2)nc1-c1cncnc1 (stereo not drawn) [Example 3, 2-({5-Methoxy-2-[2-(4-methylphenyl)pyrrolidin-1-yl]-4,5′-bipyrimidin-6-yl}amino)-1,3-thiazole-5-carbonitrile]	> 1000	8.6
COc1c(Nc2ncc(C#N)s2)nc(N2CCCC2c2ccc(C)cc2)nc1-c1cccnc1 (stereo not drawn) [Example 5, 2-({5-Methoxy-2-[2-(4-methylphenyl)pyrrolidin-1-yl]-6-(pyridin-3-yl)pyrimidin-4-yl}amino)-1,3-thiazole-5-carbonitrile]	> 1000	8.1
Cc1ccc(C2CCCN2c2nc(Nc3ncc(C#N)s3)c(C)c(-c3cnn(C)c3)n2)cc1 (stereo not drawn) [Example 8, 2-({5-Methyl-2-[2-(4-methylphenyl)pyrrolidin-1-yl]-6-(1-methyl-1H-pyrazol-4-yl)pyrimidin-4-yl}amino)-1,3-thiazole-5-carbonitrile]	> 1000	3.9
COc1c(Nc2ncc(C#N)s2)nc(N2CCC[C@H]2c2ccc(C)cc2)nc1-c1cnn(C)c1 [Example 10, 2-({5-Methoxy-2-[(2S)-2-(4-methylphenyl)pyrrolidin-1-yl]-6-(l-methyl-1H-pyrazol-4-yl)pyrimidin-4-yl}amino)-1,3-thiazole-5-carbonitrile]	260	1.1
COc1cc(C)ccc1C1CCCN1c1ncc(OC)c(Nc2ncc(C#N)s2)n1 (stereo not drawn) [Example 14, 2-({5-Methoxy-2-[2-(2-methoxy-4-methylphenyl)pyrrolidin-1-yl]pyrimidin-4-yl}amino)-1,3-thiazole-5-carbonitrile]	350	2.5
Cc1ccc(C2CCCN2c2nc(Nc3ncc(C#N)s3)c(C)c(-c3ccc(O)nc3)n2)cc1 (stereo not drawn) [Example 16, 2-({6-(6-Hydroxypyridin-3-yl)-5-methyl-2-[2-(4-methylphenyl)pyrrolidin-1-yl]pyrimidin-4-yl}amino)-1,3-thiazole-5-carbonitrile]	36	1.5
Cc1ccc(C2CCCN2c2nc(C)c(Br)c(Nc3ncc(C#N)s3)n2)cc1 (stereo not drawn) [Example 17, 2-({5-Bromo-6-methyl-2-[2-(4-methylphenyl)pyrrolidin-1-yl]pyrimidin-4-yl}amino)-1,3-thiazole-5-carbonitrile]	> 1000	39
COc1c(Nc2ncc(C#N)s2)nc(N2CCCC2c2ccc(C)cc2)nc1C1CC1 (stereo not drawn) [Example 18, 2-({6-Cyclopropyl-5-methoxy-2-[2-(4-methylphenyl)pyrrolidin-1-yl]pyrimidin-4-yl}amino)-1,3-thiazole-5-carbonitrile]	> 1000	120
Cc1ccc([C@@H]2CCCN2c2cnc(C)c(Nc3ncc(C#N)s3)n2)cc1 [Example 20, 2-({3-Methyl-6-[(2S)-2-(4-methylphenyl)pyrrolidin-1-yl]pyrazin-2-yl}amino)-1,3-thiazole-5-carbonitrile hydrochloride]	250	1.1
N#Cc1cnc(Nc2nc(N3CCCC3c3ccc(F)cc3)cnc2-c2cnco2)s1 (stereo not drawn) [Example 21, 2-({6-[2-(4-Fluorophenyl)pyrrolidin-1-yl]-3-(1,3-oxazol-5-yl)pyrazin-2-yl}amino)-1,3-thiazole-5-carbonitrile]	> 1000	13
N#Cc1cnc(Nc2nc(N3CCCC3c3ccc(F)cc3)cnc2-c2cncnc2)s1 (stereo not drawn) [Example 22, 2-({6-[2-(4-Fluorophenyl)pyrrolidin-1-yl]-3-(pyrimidin-5-yl)pyrazin-2-yl}amino)-1,3-thiazole-5-carbonitrile]	> 1000	47
COc1cc(C)ccc1C1CCCN1c1cnc(C2CC2)c(Nc2ncc(C#N)s2)n1 (stereo not drawn) [Example 23, 2-({3-Cyclopropyl-6-[2-(2-methoxy-4-methylphenyl)pyrrolidin-1-yl]pyrazin-2-yl}amino)-1,3-thiazole-5-carbonitrile]	> 1000	8.8
COc1ccccc1C1CCCN1c1cnc(C2CC2)c(Nc2ncc(C#N)s2)n1 (stereo not drawn) [Example 24, 2-({3-Cyclopropyl-6-[2-(2-methoxyphenyl)pyrrolidin-1-yl]pyrazin-2-yl}amino)-1,3-thiazole-5-carbonitrile]	210	6.6

Further lines, results first:

IC50 (JAK2 tyrosine kinase) [nM]	IC50 (ROS tyrosine kinase) [nM]	SMILES
> 1000	26	N#Cc1cnc(Nc2nc(N3CCCC3c3ccc(F)cc3)cnc2-c2ccoc2)s1 (stereo not drawn) [Example 25, 2-({6-[2-(4-Fluorophenyl)pyrrolidin-1-yl]-3-(furan-3-yl)pyrazin-2-yl}amino)-1,3-thiazole-5-carbonitrile]
> 1000	51	Cn1cc(-c2ncc(N3CCCC3c3ccc(F)cc3)nc2Nc2ncc(C#N)s2)cn1 (stereo not drawn) [Example 28, 2-({6-[2-(4-Fluorophenyl)pyrrolidin-1-yl]-3-(1-methyl-1H-pyrazol-4-yl)pyrazin-2-yl}amino)-1,3-thiazole-5-carbonitrile]
69	0.5	COc1cc(C)ccc1C1CCCN1c1cncc(Nc2ncc(C#N)s2)n1 (stereo not drawn) [Example 30, 2-({6-[2-(2-Methoxy-4-methylphenyl)pyrrolidin-1-yl]pyrazin-2-yl}amino)-1,3-thiazole-5-carbonitrile]
390	5.3	Cc1cnc(Nc2nc(N3CCCC3c3ccc(Cl)cc3)cnc2C2CC2)s1 (stereo not drawn) [Example 31, 6-[2-(4-Chlorophenyl)pyrrolidin-1-yl]-3-cyclopropyl-N-(5-methyl-1,3-thiazol-2-yl)pyrazine-2-amine]
190	2.2	COc1cc(C2CCCN2c2cncc(Nc3ncc(C#N)s3)n2)ccc1C (stereo not drawn) [Example 33, 2-({6-[2-(3-Methoxy-4-methylphenyl)pyrrolidin-1-yl]pyrazin-2-yl}amino)-1,3-thiazole-5-carbonitrile]
> 1000	2.9	Cc1ccc([C@@H]2CCCN2c2cnc(C3CC3)c(Nc3ncc(C#N)s3)n2)cc1 [Example 35, 2-({3-Cyclopropyl-6-[(2S)-2-(4-methylphenyl)pyrrolidin-1-yl]pyrazin-2-yl}amino)-1,3-thiazole-5-carbonitrile]
240	1	N#Cc1cnc(Nc2nc(N3CCC[C@H]3c3ccc(Cl)cc3)cnc2C2CC2)s1 [Example 36, 2-({6-[(2S)-2-(4-Chlorophenyl)pyrrolidin-1-yl]-3-cyclopropylpyrazin-2-yl}amino)-1,3-thiazole-5-carbonitrile]
560	13	COc1ccc(C2CCCN2c2cncc(Nc3ncc(C#N)s3)n2)cc1 (stereo not drawn) [Example 37, 2-({6-[2-(4-Methoxyphenyl)pyrrolidin-1-yl]pyrazin-2-yl}amino)-1,3-thiazole-5-carbonitrile]
620	18	COc1cccc(C2CCCN2c2cncc(Nc3ncc(C#N)s3)n2)c1 (stereo not drawn) [Example 38, 2-({6-[2-(3-Methoxyphenyl)pyrrolidine-1-yl]pyrazin-2-yl}amino)-1,3-thiazole-5-carbonitrile]
230	2.1	N#Cc1cnc(Nc2nc(N3CCCC3c3ccc(F)cc3)cnc2C2CC2)s1 (stereo not drawn) [Example 40, 2-({3-Cyclopropyl-6-[2-(4-fluorophenyl)pyrrolidin-1-yl]pyrazin-2-yl}amino)-1,3-thiazole-5-carbonitrile]
21	0.71	Cc1ncc(N2CCCC2c2ccc(F)cc2)nc1Nc1ncc(C#N)s1 (stereo not drawn) [Example 41, 2-({6-[2-(4-Fluorophenyl)pyrrolidin-1-yl]-3-methylpyrazin-2-yl}amino)-1,3-thiazole-5-carbonitrile]
100	1.6	Cc1ncc(N2CCCC2c2ccc(Cl)cc2)nc1Nc1ncc(C#N)s1 (stereo not drawn) [Example 42, 2-({6-[2-(4-Chlorophenyl)pyrrolidin-1-yl]-3-methylpyrazin-2-yl}amino)-1,3-thiazole-5-carbonitrile]
≥ 1000	13	Cc1nc(C2CC2)c(Nc2ncc(C#N)s2)nc1N1CCCC1c1ccc(Cl)cc1 (stereo not drawn) [Example 44, 2-({6-[2-(4-Chlorophenyl)pyrrolidin-1-yl]-3-cyclopropyl-5-methylpyrazin-2-yl}amino)-1,3-thiazole-5-carbonitrile]
